The source of these data is patent publication US10329289B2, “6,7-dihydro-5H-pyrrolo[3,4-B]pyridin-5-one allosteric modulators of the M4 muscarinic acetylcholine receptor” (Merck Sharp & Dohme Corp., priority 2015, dated 2019).

The structures appear in SMILES notation. pEC50: −log10 of the molar value.

In the assay the target is T1, human M4 muscarinic acetylcholine receptor (Homo sapiens, UniProt P08173).
T1 construct: expressed in transfected cells; host or cells: CHO-K1
T1 sequence (P08173 1-479): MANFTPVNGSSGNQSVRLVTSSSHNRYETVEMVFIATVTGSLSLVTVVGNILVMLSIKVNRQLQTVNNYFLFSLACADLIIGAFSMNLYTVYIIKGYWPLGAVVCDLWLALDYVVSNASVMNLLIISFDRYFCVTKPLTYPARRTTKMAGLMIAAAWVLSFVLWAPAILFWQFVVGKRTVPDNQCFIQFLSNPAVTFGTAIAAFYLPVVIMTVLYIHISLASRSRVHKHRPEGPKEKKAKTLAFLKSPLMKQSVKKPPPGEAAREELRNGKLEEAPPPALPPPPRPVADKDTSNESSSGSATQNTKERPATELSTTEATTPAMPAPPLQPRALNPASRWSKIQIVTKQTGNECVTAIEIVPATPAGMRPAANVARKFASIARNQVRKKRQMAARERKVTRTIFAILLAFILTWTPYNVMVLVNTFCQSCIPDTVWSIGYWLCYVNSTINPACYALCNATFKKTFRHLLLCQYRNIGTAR
In words: human FLIPR-based M4 PAM assay (Ca2+ mobilization, CHO-K1 cells with human M4 receptor and Gαqi5). The assay is classed as cell-based. The conditions noted are these: acetylcholine at 20% of maximum response, read-out: M4 PAM IP. Summed up:
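CHO-K1 cells stably expressing human M4 and chimeric Gαqi5 were dye-loaded ~1 h at 37 °C and read for Ca2+ fluorescence. Compound followed by acetylcholine at an EC20 (sometimes an EC70 third addition); inflection point from a 4-parameter logistic fit.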
For the molecule `Cc1c(N2CC[C@@H](Oc3ccc4c(cnn4C)c3)[C@@H](F)C2)nc2c(c1C)C(=O)N(CCO)C2` [Example 268E, 2-((3S,4R)-3-fluoro-4-((1-methyl-1H-indazol-5-yl)oxy)piperidin-1-yl)-6-(2-hydroxyethyl)-3,4-dimethyl-6,7-dihydro-5H-pyrrolo[3,4-b]pyridin-5-one], the pEC50 is 7.17.
As for `COCCOCc1cccc(OC2CCN(c3nc4c(cc3C)C(=O)NC4)CC2)c1` [Example 58, 2-(4-(3-((2-methoxyethoxy)meth-yl)phenoxy)piperi-din-1-yl)-3-methyl-6,7-dihydro-5H-pyrrolo[3,4-b]pyridin-5-one], the pEC50 was 6.72.
Next, `CCc1cc2c(nc1N1CCC(Oc3cccc(C#N)c3)CC1)CNC2=O` [Example 93A, 3-((1-(3-ethyl-5-oxo-6,7-dihydro-5H-pyrrolo[3,4-b]pyridin-2-yl)piperidin-4-yl)oxy)benzonitrile]: 6.83.
Next, `COCc1cccc(OC2CCN(c3nc4c(cc3C)C(=O)NC4)CC2)c1` [Example 57, 2-(4-(3-(methoxymethyl)phenoxy)piperidin-1-yl)-3-methyl-6,7-dihydro-5H-pyrrolo[3,4-b]pyridin-5-one]: 7.21; `COc1ccc(O[C@@H]2CCN(c3nc4c(cc3C)C(=O)NC4)C[C@H]2C)cn1` (single isomer, unassigned) [Example 2A]: 7.07; `Cc1c(N2CC[C@@H](Oc3ccc4c(c3)COC4)[C@@H](F)C2)nc2c(c1C)C(=O)N(CCO)C2` [Example 261, 2-((3S,4R)-4-((1,3-dihydro-2-benzofuran-5-yl)oxy)-3-fluoropiperidin-1-yl)-6-(2-hydroxyethyl)-3,4-dimethyl-6,7-dihydro-5H-pyrrolo[3,4-b]pyridin-5-one]: 7.41.
`Cc1cc2c(nc1N1CCC(Oc3ccccc3)CC1)[C@@H](CO)N(C)C2=O` [Example 276, (S)-7-(hydroxymethyl)-3,6-dimethyl-2-(4-phenoxypiperidin-1-yl)-6,7-dihydro-5H-pyrrolo[3,4-b]pyridin-5-one]: the pEC50 was 6.84.
In the case of `Cc1cc2c(nc1N1CC[C@@H](Oc3ccc4c(cnn4C)c3)[C@@H](F)C1)[C@@H](CO)N(C)C2=O` [Example 283, (S)-2-((3S,4R)-3-fluoro-4-((1-methyl-1H-indazol-5-yl)oxy)piperidin-1-yl)-7-(hydroxymethyl)-3,6-dimethyl-6,7-dihydro-5H-pyrrolo[3,4-b]pyridin-5-one], the pEC50 is 7.36.
`Cc1cc2c(nc1N1CC[C@H](Oc3cccc(C#N)c3)[C@@H](F)C1)CNC2=O` [Example 20, 3-(((3S,4S)-3-fluoro-1-(3-methyl-5-oxo-6,7-dihydro-5H-pyrrolo[3,4-b]pyridin-2-yl)piperidin-4-yl)oxy)benzonitrile]: the pEC50 was 7.08.
With `Cc1cc2c(nc1N1CCC(OC[C@]3(C)C[C@@H]3F)CC1)CNC2=O` (single isomer, unassigned) [Example 160A], the pEC50 is 6.20.
Turning to `Cc1cc2c(nc1N1CCC(OCc3cccnc3)CC1)CNC2=O` [Example 161, 3-Methyl-2-(4-(pyridin-3-ylmethoxy)piperidin-1-yl)-6,7-dihydro-5H-pyrrolo[3,4-b]pyridin-5-one], the pEC50 is 5.82.
For the molecule `Cc1cc2c(nc1N1CCC(Oc3ccc4c(c3)OCC(=O)N4)CC1)CNC2=O` [Example 133, 7-((1-(3-methyl-5-oxo-6,7-dihydro-5H-pyrrolo[3,4-b]pyridin-2-yl)piperidin-4-yl)oxy)-2H-benzo[b][1,4]oxazin-3(4H)-one], the pEC50 is 6.21.
As for `Cc1cc2c(nc1N1CCC(OCC3(C)CC3)CC1)[C@@H](CO)N(C)C2=O` [Example 339, (S)-7-(hydroxymethyl)-3,6-dimethyl-2-(4-((1-methylcyclopropyl)methoxy)piperidin-1-yl)-6,7-dihydro-5H-pyrrolo[3,4-b]pyridin-5-one], the pEC50 is 7.89.
